Results reported in ChEMBL document CHEMBL5120882, “Medicinal Chemistry Perspective on Targeting Mono-ADP-Ribosylating PARPs with Small Molecules” (J Med Chem, 2022).

What was measured:
[1] = biological target: T1, Poly [ADP-ribose] polymerase tankyrase-1 (Homo sapiens, UniProt O95271); assay: Inhibition of N-terminal his-tagged human TNKS1 expressed in Escherichia coli Rosette2 (DE3)
T1 sequence (O95271 whole entry): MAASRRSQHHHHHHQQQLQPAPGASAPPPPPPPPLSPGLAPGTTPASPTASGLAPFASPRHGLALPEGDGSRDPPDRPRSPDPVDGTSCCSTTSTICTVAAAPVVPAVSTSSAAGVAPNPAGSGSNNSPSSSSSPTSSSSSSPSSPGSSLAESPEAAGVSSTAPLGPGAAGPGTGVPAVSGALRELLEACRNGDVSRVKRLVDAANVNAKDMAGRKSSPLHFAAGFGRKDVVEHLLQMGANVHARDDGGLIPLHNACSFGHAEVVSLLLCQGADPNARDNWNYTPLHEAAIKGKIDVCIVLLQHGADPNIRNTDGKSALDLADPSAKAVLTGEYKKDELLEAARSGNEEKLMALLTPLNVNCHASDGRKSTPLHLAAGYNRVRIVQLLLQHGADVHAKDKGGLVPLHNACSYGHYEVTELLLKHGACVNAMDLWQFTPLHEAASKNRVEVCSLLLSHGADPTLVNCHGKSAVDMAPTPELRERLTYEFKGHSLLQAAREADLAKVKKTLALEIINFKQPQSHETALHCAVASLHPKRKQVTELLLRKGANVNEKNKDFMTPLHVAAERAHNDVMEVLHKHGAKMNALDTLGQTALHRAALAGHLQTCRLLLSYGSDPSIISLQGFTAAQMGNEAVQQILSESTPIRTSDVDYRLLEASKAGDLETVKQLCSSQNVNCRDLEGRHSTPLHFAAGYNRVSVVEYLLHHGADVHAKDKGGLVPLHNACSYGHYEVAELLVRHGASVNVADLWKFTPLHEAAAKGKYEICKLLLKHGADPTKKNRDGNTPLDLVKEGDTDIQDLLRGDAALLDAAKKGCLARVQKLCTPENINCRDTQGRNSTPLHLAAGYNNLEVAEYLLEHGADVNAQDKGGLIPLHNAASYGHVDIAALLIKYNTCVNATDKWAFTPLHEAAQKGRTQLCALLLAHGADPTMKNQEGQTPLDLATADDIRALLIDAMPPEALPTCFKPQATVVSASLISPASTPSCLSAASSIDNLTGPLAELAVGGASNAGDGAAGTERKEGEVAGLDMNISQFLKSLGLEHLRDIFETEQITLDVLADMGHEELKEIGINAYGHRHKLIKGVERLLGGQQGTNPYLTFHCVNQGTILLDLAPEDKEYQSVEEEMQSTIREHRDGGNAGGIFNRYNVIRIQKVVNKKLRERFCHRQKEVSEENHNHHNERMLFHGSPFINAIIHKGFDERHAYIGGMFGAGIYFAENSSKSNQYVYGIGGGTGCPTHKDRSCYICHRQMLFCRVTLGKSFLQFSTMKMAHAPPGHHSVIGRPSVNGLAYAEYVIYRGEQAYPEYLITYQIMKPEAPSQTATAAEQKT

[2] = biological target: T2, Protein mono-ADP-ribosyltransferase PARP15 (Homo sapiens, UniProt Q460N3); assay: Inhibition of N-terminal his-tagged human PARP15 expressed in Escherichia coli Rosette2 (DE3)
T2 sequence (Q460N3 whole entry): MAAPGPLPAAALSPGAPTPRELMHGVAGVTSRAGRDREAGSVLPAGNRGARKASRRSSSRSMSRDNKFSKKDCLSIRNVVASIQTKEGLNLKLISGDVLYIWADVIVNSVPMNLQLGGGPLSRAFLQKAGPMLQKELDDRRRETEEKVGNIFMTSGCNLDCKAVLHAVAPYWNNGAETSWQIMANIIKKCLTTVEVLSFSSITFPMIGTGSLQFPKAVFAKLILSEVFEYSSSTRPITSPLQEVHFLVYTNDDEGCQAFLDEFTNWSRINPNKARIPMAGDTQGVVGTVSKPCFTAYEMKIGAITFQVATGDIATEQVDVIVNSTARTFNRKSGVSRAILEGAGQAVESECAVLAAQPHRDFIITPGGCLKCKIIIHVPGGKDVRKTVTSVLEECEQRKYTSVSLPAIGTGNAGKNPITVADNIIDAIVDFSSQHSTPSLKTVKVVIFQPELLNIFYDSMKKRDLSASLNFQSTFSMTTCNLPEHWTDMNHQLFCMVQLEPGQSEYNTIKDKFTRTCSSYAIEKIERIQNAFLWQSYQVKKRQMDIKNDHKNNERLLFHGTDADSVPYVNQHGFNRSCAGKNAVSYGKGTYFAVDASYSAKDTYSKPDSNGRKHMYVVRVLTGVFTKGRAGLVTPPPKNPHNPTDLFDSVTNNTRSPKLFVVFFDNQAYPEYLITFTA

| SMILES | IC50 [1] | IC50 [2] |
| --- | --- | --- |
| NC(=O)c1ccc(Oc2cccc(C(N)=O)c2)cc1 | 21 µM | 1.7 µM |
| N#Cc1ccc(Oc2ccc(C(N)=O)cc2)cc1 | > 100 µM | 11 µM |
